Laboratory results: patent US20030008857A1, “Photodynamic therapy (PDT) in combination with factors that bind cell surface apoptosis-inducing receptors” (priority 1999, published 2003)

Experiments:
HeLa/Bcl-xL cells = experiment: MTT cell viability assay; assay type: cell-based
Experimental: (§1) HeLa cells were from the American Type Culture Collection (Manassas, Va.). Cells were grown in Dulbecco's modified Eagles medium (DMEM) supplemented with penicillin (100 U/ml), streptomycin (100 μg/ml), 2 mM L-glutamine, 1 mM HEPES buffer, and 10% heat-inactivated fetal bovine serum (FBS). HeLa cells over-expressing Bcl-2 and Bcl-xL were generated as described (Vander Heiden et al.). Briefly, Bcl-2 and Bcl-xL inserts were cloned into an EcoRI site of a pSFFV-neo vector (Fuhlbrigge et al.). Vectors containing inserts, or no insert (neo), were transfected into HeLa cells by electroporation. After selection in G418 (Gibco/BRL Life Technologies), cells were cloned by limiting dilution and transfectants screened for Bcl-xL or Bcl-2 by Western blot analysis. Transfected cell lines were maintained in complete DMEM with G418 (10 μg/ml).
(§2) For treatments with TRAIL and PDT, cells were incubated with 0-100 ng/ml verteporfin for 60 min at 37° C. in complete DMEM with 2% FBS or incubated with medium alone. Cells were light protected or exposed to blue fluorescent light to give a total dose of 1 J/cm^2. For experiments where cells were treated with 0-1000 ng/ml TRAIL (BIOMOL, Plymouth Meeting, Pa.), this compound was added immediately after light treatment to HeLa cells in complete DMEM with 10% FBS. Cells were maintained at 37° C. with 5% CO2
(§3) To assess their viability, cells were cultured in 96-well microtiter plates and the MTT (3-(4,5)-dimethylthiazol-2-yl)-2,5-diphenyl tetrazolium bromide) calorimetric assay was performed as described (Mosmann et al.) with modifications. Following treatment, culture medium was decanted and replaced with complete DMEM containing 10% FBS. At 24 h following treatment, culture medium was aspirated and 50 μg of MTT in 100 μl of DMEM containing 2% FBS was added to each well. The reaction was stopped 2 h later by the addition of 150 μl of acidified isopropanol. Color development was measured at 590 nm with a microtiter plate reader. The result obtained for PDT, TRAIL or TRAIL plus PDT treatments was compared to the MTT value obtained for cells not given any treatment and expressed as percentages (%) of the control result.

HeLa/neo cells = experiment: MTT cell viability assay; assay type: cell-based
Experimental: as §1, §2, §3

HeLa/Bcl-2 cells = experiment: MTT cell viability assay; assay type: cell-based
Experimental: as §1, §2, §3

Jurkat T cells = experiment: DNA fragmentation (sub-diploid DNA) by PI staining and flow cytometry; assay type: cell-based, human; conditions: for cells exhibiting DNA fragmentation (sub-diploid DNA levels): 690 nm light 5 J/cm^2, analysis 24 hours later
Experimental: The human Jurkat T cell line containing a neomycin resistance gene was obtained from Dr. Charles Rudin (University of Chicago). Cells were maintained in RPMI 1640 medium containing 10% heat-inactivated fetal calf serum (FCS) with penicillin (100 U/mL), streptomycin (100 μg/mL), 20 mM HEPES, 2 mM L-glutamine and G418 (1 μg/ml) purchased from Gibco BRL (Burlington, Ontario) in a CO2 incubator at 37° C. To elicit apoptosis with PDT, Jurkat cells were incubated with different amounts of liposomally formulated benzoporphyrin derivative monoacid ring A (BPD-MA, verteporfin, QLT PhotoTherapeutics, Inc., Vancouver, Canada) for one hour at 37° C. under light-protected conditions. The culture medium used for experiments was identical to that used for the passage of the cells except that FCS was used at a concentration of 5%. Experiments were conducted either in 6-well culture plates at 5×10^6 cells in a volume of 4 ml per well or in 96-well microtiter plates at 1×10^5 cells per well at 0.2 ml per well. Cells were irradiated with light of a wavelength of 690 nm delivered at 65-73 mW/sec from light emitting diodes (LED) to achieve a total light dose of 5 J/cm^2. Cells were returned to the incubator until required for analysis.
FasL and TRAIL as used were recombinant preparations. FasL was obtained from Upstate Biotechnology (Lake Placid NY) and corresponded to amino acids 103-281 of the soluble domain of human FasL. TRAIL was obtained from BIOMOL Research Laboratories (Plymouth Meeting, Pa.) and corresponded to residues 114-281 of the soluble domain of human TRAIL. FasL and TRAIL were usually added immediately following the treatment of cells with PDT, although in one series of experiments these factors were added at 1, 2 or 3 hours post-irradiation.
The proportion of cells containing sub-diploid levels of DNA 24 hours following treatment was determined using a propidium iodide (“PI”) fluorescence analysis procedure as described by Telford et al. (“Rapid Quantitation of Apoptosis in Pure and Heterogeneous Cell Populations Using Flow Cytometry” J. Immunol Methods 172:1-6 (1994)) or by Darzynkieicz et al. (“Features of Apoptotic Cells Measured by Flow Cytometry”, Cytometry, 13:795-808 (1992)).
Twenty four hours following PDT, 5×10^5 cells were washed twice with ice-cold PBS and then permeablized and fixed in 80% ethanol at 4° C. for one hour. The cells were again washed in ice-cold PBS and stained with PI (50 μg/mL) in PBS with simultaneous deoxyribose nuclease-free ribonuclease A (5 U/mL) treatment. These samples were analyzed by flow cytometry. The percentage of apoptotic cells was calculated using single color analysis for PI fluorescence with a Coulter XL flow cytometer (Coulter Electronics, Inc., Hialeah, Fla.). […] The degree of separation between the apoptotic population and the G0/G1 peak is readily apparent and the percentage of apoptotic cells is determined from the subsequent histogram.

[1] = TRAIL in combination with verteporfin PDT, 24 hours
[2] = TRAIL up to 25 ng/ml, 24 hours post-treatment
[3] = PDT with verteporfin at 25 or 50 ng/ml, blue fluorescent light 1 J/cm^2, 24 hours

TRAIL: recombinant, residues 114-281 of the soluble domain of human TRAIL (BIOMOL)
cell viability (HeLa/Bcl-xL cells; TRAIL at 500 ng/ml, 24 hours): a significant degree of protection against TRAIL
cell viability compared with PDT or TRAIL alone and with the expected additive effect (HeLa/Bcl-xL cells; [1]): significantly decreased cell viability
cell viability (HeLa/Bcl-xL cells; [2]): little or no loss of cell viability
cell viability (HeLa/neo cells; TRAIL at 500 ng/ml, 24 hours): a complete loss of viability
cell viability (HeLa/neo cells; TRAIL at 50 and 100 ng/ml, 24 hours): a loss in viability
cell viability compared with PDT or TRAIL alone and with the expected additive effect (HeLa/neo cells; [1]): significantly decreased cell viability
cell viability (HeLa/neo cells; [2]): little or no loss of cell viability
cell viability (HeLa/Bcl-2 cells; TRAIL at 500 ng/ml, 24 hours): a significant degree of protection against TRAIL
cell viability compared with PDT or TRAIL alone and with the expected additive effect (HeLa/Bcl-2 cells; [1]): significantly decreased cell viability
cell viability (HeLa/Bcl-2 cells; [2]): little or no loss of cell viability
increase in proportion of cells with sub-diploid DNA versus light-treated control cells (Jurkat T cells; TRAIL 20 ng/ml added after PDT with verteporfin 2 ng/ml, 5 J/cm^2, 24 hours): approximately eight-fold
increase in the number of cells displaying DNA fragmentation (Jurkat T cells; TRAIL 20 ng/ml by itself, 24 hours (FIG. 2)): two-fold
proportion of cells with sub-diploid DNA compared with PDT alone (Jurkat T cells; TRAIL 20 ng/ml or FasL 7.5 ng/ml added after PDT with verteporfin 0.5 and 1 ng/ml): a greater proportion of cells contained a sub-diploid level of DNA
nature of the combined effect on DNA fragmentation (Jurkat T cells; TRAIL 20 ng/ml with PDT (verteporfin 2 ng/ml) versus each alone): greater than additive
cells with induced DNA fragmentation (Jurkat T cells; TRAIL 1000 ng/ml, within 24 hours): approximately 60%
DNA fragmentation induced by the factor without PDT across addition times (Jurkat T cells; added at 5 minutes, 1, 2 or 3 hours, FasL 7.5 ng/ml, TRAIL 20 ng/ml, individually or in combination): a comparable level of DNA fragmentation
change of the combined effect with PDT on DNA fragmentation (Jurkat T cells; factor added at 3 hours post-PDT (verteporfin 2 ng/ml)): a modest decline
capacity to accentuate PDT-mediated apoptosis (DNA fragmentation) (Jurkat T cells; factor added up to 3 hours after PDT (verteporfin 2 ng/ml), FasL 7.5 ng/ml, TRAIL 20 ng/ml): still demonstrable

benzoporphyrin derivative monoacid ring A [verteporfin, reference compound]
cell viability (HeLa/Bcl-xL cells; [3]): some loss in viability
cell viability (HeLa/neo cells; [3]): some loss in viability
cell viability (HeLa/Bcl-2 cells; [3]): some loss in viability
cells exhibiting DNA fragmentation relative to cells treated with light alone (Jurkat T cells; verteporfin 2 ng/ml, light 5 J/cm^2, 24 hours): Five times
cells exhibiting DNA fragmentation (sub-diploid DNA levels) (Jurkat T cells; verteporfin 5 ng/ml): a minor proportion of cells
cells exhibiting DNA fragmentation (sub-diploid DNA levels) (Jurkat T cells; verteporfin 15 ng/ml): the vast majority of cells
